According to PMC9245717, “Phylogenomic and functional characterization of an evolutionary conserved cytochrome P450-based insecticide detoxification mechanism in bees” (Proceedings of the National Academy of Sciences of the …, 2022):

Key:
A. mellifera CYP9Q3 = biological target: T1, A. mellifera CYP9Q3 (Apis mellifera, UniProt A0A7M7LMV1); assay: UPLC-MS/MS depletion and metabolite formation assay; type: biochemical; conditions: 10 µM substrate; NADPH regeneration system; 2 h, 30 °C; recombinant microsomes
T1 construct: gene LOC408453; recombinant, baculovirus, High-5 (Trichoplusia ni) cell microsomes; coexpressed with A. mellifera CPR (XP_006569769.1)
T1 sequence (A0A7M7LMV1 1-517): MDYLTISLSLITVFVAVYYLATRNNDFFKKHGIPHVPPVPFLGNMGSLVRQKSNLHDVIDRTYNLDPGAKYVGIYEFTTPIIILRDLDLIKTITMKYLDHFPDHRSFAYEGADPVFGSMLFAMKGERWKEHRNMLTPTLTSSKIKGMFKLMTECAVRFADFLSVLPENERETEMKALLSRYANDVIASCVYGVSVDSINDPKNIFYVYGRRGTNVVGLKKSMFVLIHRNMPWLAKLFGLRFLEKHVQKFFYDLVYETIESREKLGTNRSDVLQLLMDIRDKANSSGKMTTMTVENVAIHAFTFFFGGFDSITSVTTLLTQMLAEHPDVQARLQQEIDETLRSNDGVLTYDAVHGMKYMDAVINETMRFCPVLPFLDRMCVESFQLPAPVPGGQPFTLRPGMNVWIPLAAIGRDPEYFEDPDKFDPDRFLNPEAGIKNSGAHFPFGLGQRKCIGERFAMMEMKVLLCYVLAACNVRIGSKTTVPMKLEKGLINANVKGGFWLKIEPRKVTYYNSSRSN

[1] = system: T2, Colletes cunicularius CYP9FZ2; assay: fluorescent probe saturation kinetics, Michaelis-Menten; type: biochemical; conditions: NADPH; recombinant microsomes
T2 construct: recombinant, baculovirus, High-5 (Trichoplusia ni) cell microsomes; coexpressed with A. mellifera CPR (XP_006569769.1)

[2] = system: T3, Melitta hemorrhoidalis CYP9FU3; assay: as above; parameters: species or system Melitta haemorrhoidalis; conditions: NADPH; recombinant microsomes
T3 construct: recombinant, baculovirus, High-5 (Trichoplusia ni) cell microsomes; coexpressed with A. mellifera CPR (XP_006569769.1)

[3] = system: T4, Xylocopa violacea CYP9Q18; assay: as above; type: biochemical; conditions: NADPH; recombinant microsomes
T4 construct: recombinant, baculovirus, High-5 (Trichoplusia ni) cell microsomes; coexpressed with A. mellifera CPR (XP_006569769.1)

Andrena vaga CYP9FT2 = system: T5, Andrena vaga CYP9FT2; assay: as above; type: biochemical; conditions: NADPH; recombinant microsomes
T5 construct: recombinant, baculovirus, High-5 (Trichoplusia ni) cell microsomes; coexpressed with A. mellifera CPR (XP_006569769.1)

Row | SMILES | UPLC-MS/MS depletion and metabolite formation assay (A. mellifera CYP9Q3) | Km [1] | Km [2] | Km [3] | Km (Andrena vaga CYP9FT2)
1 | O=C1C=C(N(Cc2ccc(Cl)nc2)CC(F)F)CO1 [flupyradifurone] | FPF metabolite formation was remarkably uniform among all the P450s tested |  |  |  | 
2 | O=c1cc(C(F)(F)F)c2ccc(OCOCc3ccccc3)cc2o1 [BOMFC, 7-benzyloxymethoxy-4-trifluoromethyl coumarin] |  | 14.7 µM | 8.16 µM | 15.2 µM | 7.43 µM
